The values below come from US20250197390A1, “FUSED HETEROCYCLIC COMPOUND, AND PREPARATION METHOD THEREFOR AND MEDICAL USE THEREOF” (Jiangsu Hengrui Pharmaceuticals Co., Ltd., priority 2022, published 2025).

In one series the test system is HT29 cells. The series can be described thus: Inhibition of necroptosis of HT29 cells (CTG method). It is filed as cell-based. Conditions: Homo sapiens, HT-29, TZA mixture (TNFα, Z-VAD-FMK, AT-406) 24 h, CellTiter-Glo, read-out: IC50, inhibitory effect on necroptosis of HT29 cells. As for the experimental part:
Test Example 1: Inhibitory Effects of Compounds of the Present Disclosure on Necroptosis of HT29 Cells
The CTG method was used for detecting the inhibitory effects of the compounds of the present disclosure on the necroptosis of HT29 cells. The specific procedures are as follows:
HT29 cells were purchased from American Type Culture Collection (ATCC, HTB-38) and cultured with a McCoy's 5A medium (10% FBS) in a 37° C. incubator with 5% carbon dioxide. The cell culture density was maintained at 2×10^4 to 8×10^4 cells/cm^2, and the cells were passaged 2-3 times a week.
• a. Test compounds were dissolved in DMSO to 2 mM. • b. The compounds were 3-fold diluted from an initial concentration of 2 mM to 10 gradient concentrations. • c. All concentrations of compounds were 100-fold diluted with the culture medium for later use.
• a. The cells were counted, and the cell density was adjusted to 1×10^5 cells/mL with a fresh culture medium. • b. The cells were seeded in a 96-well plate at 80 µL/well and cultured at 37° C. overnight. • c. […] After the culture plate was left to stand at room temperature for 0.5 h, a stable luminescence signal was obtained, and then the plate was read using a microplate reader. • g. The IC50 values of the compounds of the present disclosure were calculated by the Graphpad software.
In general terms: Cellular ATP, detected with luciferase, serves as a proxy for viable cell number.

The target in a further series is RIPK1 kinase (Homo sapiens (Human), UniProt Q13546). The series can be described thus: RIPK1 kinase inhibition (ADP-Glo method). It is filed as biochemical. The settings on record: ATP and MBP substrate, 90 min, read-out: IC50, inhibitory activity against RIPK1 kinase. The text has this: Test Example 2: Inhibitory Activities of Compounds of the Present Disclosure Against RIPK1 Kinase (ADP-Glo Method)
The ADP GLO method was used for detecting the inhibitory activities of the compounds of the present disclosure against RIPK1 kinase. The method is specifically as follows:
• 1) RIPK1 kinase reaction system (containing RIPK1 kinase, MBP, 5× reaction buffer, MnCl2 and DTT) (Promega, VA7592) • 2) ADP-Glo kinase detection kit (containing ADP-Glo reagent and kinase detection reagents) (Promega, V9101) • 3) ATP solution (10 mM) (Thermofisher PV3227) • 4) 96-well small-volume white plate (Cisbio, 66PL96100) • 5) PHERA star microplate reader (BMG labtech)
• a. Reaction buffer: a reaction buffer containing DTT at a final concentration of 50 μM and MnCl2 at a final concentration of 4 mM was prepared using 5× reaction buffer; • b. RIPK1 kinase solution: a RIPK1 kinase solution at a final concentration of 10 ng/μL was prepared using the reaction buffer; • c. […]
• a. […] The plate was read using the PHERA star microplate reader, and relative luminescence unit (RLU) values were recorded. • g. Plotting was performed using the Graphpad software, and the IC50 values of the compounds of the present disclosure were calculated.
(In general: ADP-Glo first removes unused ATP, then detects ADP through luciferase.)

A short description of series [1]: Pharmacokinetic evaluation in beagles after intragastric administration. The settings on record: both sexes, beagle, dog, plasma, po, 2 mg/kg. The format is in vivo. The protocol:
Test Example 3: Pharmacokinetic Evaluation of Compound of the Present Disclosure in Dogs
Beagles were used as test animals. Plasma concentrations of the compound of Example 2 at different time points after intragastric administration of Example 2 compound to beagles were determined using an LC/MS/MS method. The pharmacokinetic performance of the compound of the present disclosure was studied in beagles and its pharmacokinetic profile was evaluated.
Eight beagles were provided by Jiangsu Johnbio Biotechnology Co., Ltd., with an equal number of males and females. The production license number was SCXK (Jiangsu) 2018-0005.
A certain amount of the compound of Example 2 was weighed out, and 5% DMSO+30% PG+30% PEG400+35% normal saline were added to prepare a 0.4 mg/mL clear solution.
The compound of Example 2 was administered at a dose of 2 mg/kg with a volume of 5 mL/kg.
The compound of Example 2 was intragastrically administered to the beagles. 0.5 mL of blood samples were collected from the forelimb vein 0 h before administration and 15 min, 30 min, 1.0 h, 2.0 h, 4.0 h, 6.0 h, 8.0 h, 11.0 h, and 24.0 h after administration. The blood samples were placed into EDTA-K2 anticoagulation test tubes and centrifuged at 10,000 rpm for 2 min (4° C.), and plasma was separated within 1 h and stored in a −80° C. refrigerator/dry ice before analysis. Two hours after administration, feeding was resumed.
After the administration of the compound of Example 2, the plasma concentrations of the compound of Example 2 in the beagles were determined: 50 μL of the beagle plasma at each time point after the administration was taken, and 25 μL of internal standard solution ([…] camptothecin) and 450 μL of acetonitrile were added, and the mixture was vortexed and centrifuged at 3700 rpm for 10 min. 0.5 μL of supernatant was collected for LC/MS/MS analysis.

The structures appear in SMILES notation.

RIPK1 kinase, sequence (Q13546 1-327): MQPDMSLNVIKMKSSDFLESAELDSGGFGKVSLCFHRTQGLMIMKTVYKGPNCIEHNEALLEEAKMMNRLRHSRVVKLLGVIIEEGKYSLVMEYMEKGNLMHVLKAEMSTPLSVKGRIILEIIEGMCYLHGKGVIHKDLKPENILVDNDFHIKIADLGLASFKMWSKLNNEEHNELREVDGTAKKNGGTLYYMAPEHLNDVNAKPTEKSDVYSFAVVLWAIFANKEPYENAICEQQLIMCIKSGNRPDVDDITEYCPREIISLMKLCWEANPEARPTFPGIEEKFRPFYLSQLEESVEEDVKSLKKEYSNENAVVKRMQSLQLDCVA

For orientation: IC50 means the midpoint of a concentration-inhibition curve. Broadly, the MRT is a mean duration of stay, worked out from the concentration-time curve. On to `Nc1nc2cc(-c3ccc4c(c3)C(=O)N(Cc3cc(OC(F)(F)F)ccc3F)CCC4)ccn2n1` [Example 2, 8-(2-Amino-[1,2,4]triazolo[1,5-a]pyridin-7-yl)-2-(2-fluoro-5-(trifluoromethoxy)benzyl)-2,3,4,5-tetrahydro-1H-benzo[c]azepin-1-one], for which the IC50 in the series with HT29 cells was 1.5 nM; at RIPK1 kinase it was 2.7 nM. Also, the Vd/F in series [1] (read-out: Apparent volume of distribution Vz/F) came to 0.49 L/kg. Moreover, the AUC(0-t) in series [1] (read-out: Area under curve AUC0-t) came to 51600 ng·h/mL. In addition, the CL/F in series [1] (read-out: Clearance rate CL/F) came to 0.48 mL/min/kg. Besides, the half-life in series [1] (read-out: Half-life T1/2 (converted)) was 12.5 h. In series [1] (read-out: Plasma concentration Cmax), the Cmax came out at 2940 ng/mL. In addition, in series [1] (read-out: Residence time MRT), the MRT was determined as 19.4 h.

For the molecule `Nc1nc2cc(-c3ccc4c(c3)C(=O)N(Cc3cc(OC(F)(F)F)ccc3F)CCO4)ccn2n1` [Example 1, 7-(2-Amino-[1,2,4]triazolo[1,5-a]pyridin-7-yl)-4-(2-fluoro-5-(trifluoromethoxy)benzyl)-3,4-dihydrobenzo[f][1,4]oxazepin-5(2H)-one], the IC50 worked out at 13.3 nM in the series with HT29 cells and 23 nM at RIPK1 kinase.
